Data taken from PMC7961853 (Journal of medicinal chemistry, 2020).

Columns and labels:
[1] = biological target: GluN1/GluN2D (Rattus norvegicus, UniProt Q62645); conditions: percent of control, 100 μM glutamate and 30 μM glycine
[2] = biological target: GluN1/GluN2C (Rattus norvegicus, UniProt Q00961); conditions: percent of control, 100 μM glutamate and 30 μM glycine
[3] = test system: GluN2C- and GluN2D-containing receptors; test: TEVC recordings, values stated in text jointly for GluN2C/D; format: cell-based, rat; conditions: for activity at GluN2C/D in words: TEVC evaluation; for p(doubling conc.) at GluN2C/D / pEC50 at GluN2C/D: value or range over GluN2C and GluN2D; for maximum potentiation at GluN2C/D: fitted max, range over GluN2C and GluN2D, saturating co-agonists
[4] = test system: GluN2A- or GluN2B-containing receptors; test: TEVC recordings, values stated jointly for GluN2A/B; format: cell-based, rat; conditions: 10 or 30 μM compound
[5] = biological target: GluN1/GluN2C (Rattus norvegicus, UniProt P35439+Q00961); test: cell-based
[6] = test system: α4β2-nACh; format: cell-based; conditions: 10 μM compound, saturating agonist
[7] = 20 mg/kg i.p., cited from earlier work
[8] = plasma protein binding by equilibrium dialysis; format: in vitro ADME, rat; conditions: 1 μM of drug
[9] = pharmacokinetics in mice, i.p. dosing, plasma and brain by LC/MS-MS; conditions: male, C57Bl/6, mouse, ip, 10 mg/kg
[10] = stability as a powder or DMSO stock; format: physicochemical; conditions: room temperature under regular atmosphere; longest time tested
[11] = biological target: GluN2A-containing receptors; conditions: cited from earlier work

Sequence of GluN1/GluN2C (Rattus norvegicus, UniProt P35439+Q00961) (Q00961 20-1237, other chains not shown): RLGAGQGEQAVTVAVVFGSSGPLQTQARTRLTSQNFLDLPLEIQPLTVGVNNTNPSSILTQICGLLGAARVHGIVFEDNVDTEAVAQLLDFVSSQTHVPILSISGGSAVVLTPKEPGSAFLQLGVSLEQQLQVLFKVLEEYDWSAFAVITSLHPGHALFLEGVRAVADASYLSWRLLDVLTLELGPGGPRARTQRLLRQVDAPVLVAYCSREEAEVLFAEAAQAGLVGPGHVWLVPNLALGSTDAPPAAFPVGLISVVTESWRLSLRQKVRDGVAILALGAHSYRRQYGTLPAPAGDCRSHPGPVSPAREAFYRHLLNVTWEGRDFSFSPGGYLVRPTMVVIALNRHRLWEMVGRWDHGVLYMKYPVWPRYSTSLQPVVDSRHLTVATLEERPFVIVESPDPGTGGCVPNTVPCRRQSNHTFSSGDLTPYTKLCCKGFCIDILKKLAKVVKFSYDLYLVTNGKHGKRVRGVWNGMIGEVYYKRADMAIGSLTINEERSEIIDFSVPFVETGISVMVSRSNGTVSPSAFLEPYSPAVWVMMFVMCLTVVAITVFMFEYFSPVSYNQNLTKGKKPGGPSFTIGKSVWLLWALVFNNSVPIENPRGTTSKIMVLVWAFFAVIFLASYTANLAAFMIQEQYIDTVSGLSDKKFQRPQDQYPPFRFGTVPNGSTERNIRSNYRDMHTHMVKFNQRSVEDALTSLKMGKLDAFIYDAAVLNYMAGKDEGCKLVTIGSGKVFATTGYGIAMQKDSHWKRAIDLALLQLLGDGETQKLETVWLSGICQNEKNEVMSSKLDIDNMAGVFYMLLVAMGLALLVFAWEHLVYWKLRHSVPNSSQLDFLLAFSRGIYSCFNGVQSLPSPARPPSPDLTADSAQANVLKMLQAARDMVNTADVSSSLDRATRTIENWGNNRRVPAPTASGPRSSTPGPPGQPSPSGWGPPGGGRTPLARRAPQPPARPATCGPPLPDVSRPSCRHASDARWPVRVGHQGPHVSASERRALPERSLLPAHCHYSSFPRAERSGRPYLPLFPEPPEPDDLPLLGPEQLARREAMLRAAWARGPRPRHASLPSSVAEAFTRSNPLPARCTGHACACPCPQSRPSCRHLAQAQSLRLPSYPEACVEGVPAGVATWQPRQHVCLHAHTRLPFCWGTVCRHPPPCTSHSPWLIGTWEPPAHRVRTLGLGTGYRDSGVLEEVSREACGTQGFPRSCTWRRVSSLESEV
Sequence of GluN1/GluN2C (Rattus norvegicus, UniProt Q00961) (Q00961 20-1237, other chains not shown): as above
Sequence of GluN1/GluN2D (Q62645 28-1323, other chains not shown): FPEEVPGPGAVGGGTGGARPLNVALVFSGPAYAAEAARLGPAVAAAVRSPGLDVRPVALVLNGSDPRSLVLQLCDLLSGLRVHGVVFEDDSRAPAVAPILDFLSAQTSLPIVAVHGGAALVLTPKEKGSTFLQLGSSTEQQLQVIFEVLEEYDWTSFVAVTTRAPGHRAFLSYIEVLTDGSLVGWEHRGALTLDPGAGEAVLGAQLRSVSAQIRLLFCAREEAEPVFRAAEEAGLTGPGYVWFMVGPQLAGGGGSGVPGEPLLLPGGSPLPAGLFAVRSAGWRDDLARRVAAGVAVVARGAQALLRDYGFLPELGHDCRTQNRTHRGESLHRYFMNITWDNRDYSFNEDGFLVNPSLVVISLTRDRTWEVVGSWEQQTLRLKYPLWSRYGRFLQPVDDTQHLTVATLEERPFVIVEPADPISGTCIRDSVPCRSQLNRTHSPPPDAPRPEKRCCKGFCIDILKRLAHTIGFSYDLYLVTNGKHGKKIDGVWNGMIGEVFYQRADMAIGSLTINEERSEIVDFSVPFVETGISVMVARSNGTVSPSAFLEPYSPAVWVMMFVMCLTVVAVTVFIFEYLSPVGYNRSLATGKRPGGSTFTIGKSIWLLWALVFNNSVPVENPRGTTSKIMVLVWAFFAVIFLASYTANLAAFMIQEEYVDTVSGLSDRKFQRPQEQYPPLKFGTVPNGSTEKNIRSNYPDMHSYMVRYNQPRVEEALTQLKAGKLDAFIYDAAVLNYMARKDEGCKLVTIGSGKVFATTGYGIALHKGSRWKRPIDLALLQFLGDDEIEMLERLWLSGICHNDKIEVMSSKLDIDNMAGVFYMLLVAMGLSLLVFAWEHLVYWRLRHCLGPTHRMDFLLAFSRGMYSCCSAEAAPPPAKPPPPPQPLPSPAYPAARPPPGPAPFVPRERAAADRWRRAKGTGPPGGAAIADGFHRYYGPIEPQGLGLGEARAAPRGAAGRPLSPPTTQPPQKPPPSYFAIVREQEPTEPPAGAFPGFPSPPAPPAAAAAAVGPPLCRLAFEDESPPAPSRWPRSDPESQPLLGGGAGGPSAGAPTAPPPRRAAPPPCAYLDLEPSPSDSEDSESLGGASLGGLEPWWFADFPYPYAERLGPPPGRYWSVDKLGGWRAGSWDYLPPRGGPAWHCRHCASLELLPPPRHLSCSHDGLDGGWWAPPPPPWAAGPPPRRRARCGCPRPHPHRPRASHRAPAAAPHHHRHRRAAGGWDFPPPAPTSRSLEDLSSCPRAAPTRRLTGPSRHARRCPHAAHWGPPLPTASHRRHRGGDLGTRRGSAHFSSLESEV

Compound: 1-((4-Ethoxyphenoxy)methyl)-2-(3-(trifluoromethyl)benzyl)-1,2-dihydropyrrolo[1,2-a]pyrazine-3(4H)-thione [compound 32]
- max (%) GluN2D, pEC50 ND: percent potentiation at 30 μM drug [1]: ND (110) %
- max (%) GluN2C, pEC50 ND: percent potentiation at 30 μM drug [2]: ND (120) %
- activity at GluN2C/D in words [3]: complete loss of activity

Compound: COc1ccc(OCC2c3ccc(OC)cc3CC(=O)N2CCCC(F)(F)F)cc1 (stereo not shown) [12f, 6-Methoxy-1-((4-methoxyphenoxy)methyl)-2-(4,4,4-trifluorobutyl)-1,2-dihydroisoquinolin-3(4H)-one]
- p(doubling conc.) at GluN2C/D [3]: 5.0–5.1

Compound: COc1ccc(OCC2c3ccc(OC)cc3CC(=O)N2CC(F)(F)F)cc1 (stereo not shown) [12g, 6-Methoxy-1-((4-methoxyphenoxy)methyl)-2-(2,2,2-trifluoroethyl)-1,2-dihydroisoquinolin-3(4H)-one]
- pEC50 at GluN2C/D [3]: < 4.5

Compound: COc1ccc(OCC2c3cc(OC)c(OC)cc3CC(=O)N2Cc2cccc(Cl)c2)cc1 (stereo not shown) [12m, 2-(3-Chlorobenzyl)-6,7-dimethoxy-1-((4-methoxyphenoxy)-methyl)-1,4-dihydroisoquinolin-3(2H)-one]
- activity at GluN2A/B in words [4]: no activity

Compound: COc1cc2c(cc1OC)C(CO)N(C(=O)c1cccc(C(F)(F)F)c1)CC2 (stereo not shown) [17b, (1-(Hydroxymethyl)-6,7-dimethoxy-3,4-dihydroisoquinolin-2(1H)-yl)(3-(trifluoromethyl)phenyl)methanone]
- activity at GluN2C/D in words [3]: not tolerated

Compound: COc1ccc(OCC2c3cc(OC)c(OC)cc3CCN2C(=O)c2cccc(Cl)c2)s1 (stereo not shown) [18a, (3-Chlorophenyl)(6,7-dimethoxy-1-(((5-methoxythiophen-2-yl)-oxy)methyl)-3,4-dihydroisoquinolin-2(1H)-yl)methanone]
- activity at GluN2C/D in words [3]: not tolerated

Compound: COc1cc2c(cc1OC)C(COC1CCOCC1)N(C(=O)c1cccc(C(F)(F)F)c1)CC2 (stereo not shown) [18d, (6,7-Dimethoxy-1-(((tetrahydro-2H-pyran-4-yl)oxy)methyl)-3,4-dihydroisoquinolin-2(1H)-yl)(3-(trifluoromethyl)phenyl)methanone]
- activity at GluN2C/D in words [3]: not tolerated

Compound: COc1ccc(OCC2c3sccc3CCN2C(=O)c2cccc(Cl)c2)cc1 (stereo not shown) [25a, (3-Chlorophenyl)(7-((4-methoxyphenoxy)methyl)-4,7-dihydrothieno[2,3-c]pyridin-6(5H)-yl)methanone]
- maximum potentiation at GluN2C/D [3]: 280–350%
- p(doubling conc.) at GluN2C/D [3]: 5.3–5.6
- activity at GluN2A/B in words [4]: no activity

Compound: COc1ccc(OCC2c3cc(OC)sc3CCN2C(=O)c2cccc(Cl)c2)cc1 (stereo not shown) [25d, (3-Chlorophenyl)(2-methoxy-4-((4-methoxyphenoxy)methyl)-6,7-dihydrothieno[3,2-c]pyridin-5(4H)-yl)methanone]
- EC50 [5]: 5010 nM
- Emax ([5]; read-out: max (%) GluN2C): 220%

Compound: COc1ccc(OCC2c3occc3CCN2C(=O)c2cccc(Cl)c2)cc1 (stereo not shown) [25f, (3-Chlorophenyl)(7-((4-methoxyphenoxy)methyl)-4,7-dihydrofuro[2,3-c]pyridin-6(5H)-yl)methanone]
- p(doubling conc.) at GluN2C/D [3]: 5.4–5.5

Compound: COc1ccc(OCC2c3cnn(C)c3CCN2C(=O)c2cccc(Cl)c2)cc1 (stereo not shown) [25g, (3-Chlorophenyl)(4-((4-methoxyphenoxy)methyl)-1-methyl-1,4,6,7-tetrahydro-5H-pyrazolo[4,3-c]pyridin-5-yl)methanone]
- pEC50 at GluN2C/D [3]: < 4.5

Compound: COc1ccc(OCC2c3ccsc3CCN2C(=O)c2cccc(Cl)c2)cc1 (stereo not shown) [25h, (3-Chlorophenyl)(4-((4-methoxyphenoxy)methyl)-6,7-dihydrothieno[3,2-c]pyridin-5(4H)-yl)methanone]
- maximum potentiation at GluN2C/D [3]: 330–340%

Compound: COc1ccc(OCC2c3cccn3CCN2C(=O)c2cccc(Cl)c2)cc1 (stereo not shown) [25i, (3-Chlorophenyl)(1-((4-methoxyphenoxy)methyl)-3,4-dihydropyrrolo[1,2-a]pyrazin-2(1H)-yl)methanone]
- p(doubling conc.) at GluN2C/D [3]: 5.8–5.9

Compound: COc1ccc(OCC2c3cccn3CC(=O)N2Cc2cccc(C(F)(F)F)c2)cc1 (stereo not shown) [31a, 1-((4-Methoxyphenoxy)methyl)-2-(3-(trifluoromethyl)benzyl)-1,2-dihydropyrrolo[1,2-a]pyrazin-3(4H)-one]
- p(doubling conc.) at GluN2C/D [3]: 5.9–6.1
- inhibition of α4β2-nACh current response [6]: > 50%

Compound: COc1ccc(OCC2c3cc(OC)c(OC)cc3CCN2C(=O)c2cccc(Cl)c2)cc1 (stereo not shown) [CIQ, (3-chlorophenyl)(6,7-dimethoxy-1-((4-methoxyphenoxy)-methyl)-3,4-dihydroisoquinolin-2(1H)-yl)methanone]
- Cmax (ng/mL), plasma ([7]; 1:4:5 dimethylacetamide:PEG400:(5% dextrose in water)): 2090 ± 20 ng/mL
- t1/2 (h), plasma [7]: 1.35 ± 0.12 h
- bound to rat plasma protein [8]: > 99.9%

Compound: COc1ccc(OCC2c3cccn3CC(=O)N2Cc2cccc(F)c2)cc1 (stereo not shown) [EU-1180–453, 2-(3-Fluorobenzyl)-1-((4-methoxyphenoxy)methyl)-1,2-dihydropyrrolo[1,2-a]pyrazin-3(4H)-one]
- Tmax ([9]; brain and plasma): 15 min
- Cmax ([9]; plasma): 695 ± 111 ng/mL
- bound to rat plasma protein [8]: 98.7%
- stable as a powder or a DMSO stock [10]: at least 30 days

Compound: N#C[C@@H]1C[C@H]1c1c(Cl)ccc2nc(Cn3nc(C(F)(F)F)cc3Cl)cc(=O)n12 [GNE-5729]
- EC50 [11]: 37 nM
